US10941122B2, “Diaminotriazine derivatives as herbicides” (BASF SE, priority 2014, dated 2021)

Experiments:
AMARE = test: greenhouse pre-emergence herbicidal test; format: in vivo, Amaranthus retroflexus; conditions: pre-emergence method, application rate 0.250 kg/ha, scale from 0 to 100
Source text: (§1) The seeds of the test plants were sown separately for each species. For the pre-emergence treatment, the active ingredients, which had been suspended or emulsified in water, were applied directly after sowing by means of finely distributing nozzles. The containers were irrigated gently to promote germination and growth and subsequently covered with transparent plastic hoods until the plants had rooted. This cover caused uniform germination of the test plants, unless this had been impaired by the active ingredients. Depending on the species, the plants were kept at 10-25° C. or 20-35° C., respectively. The test period extended over 2 to 4 weeks. During this time, the plants were tended, and their response to the individual treatments was evaluated. Evaluation was carried out using a scale from 0 to 100. 100 means no emergence of the plants, or complete destruction of at least the aerial moieties, and 0 means no damage, or normal course of growth. A moderate herbicidal activity is given at values of at least 60, a good herbicidal activity is given at values of at least 70, and a very good herbicidal activity is given at values of at least 85. The plants used in the greenhouse experiments were of the following species: [table]

APESV = test: greenhouse pre-emergence herbicidal test; format: in vivo, Apera spica-venti; conditions: pre-emergence method, application rate 0.250 kg/ha, scale from 0 to 100
Source text: as §1

## CC(C)(F)c1nc(N)nc(Nc2c(F)cccc2OC2CCCC2)n1 [Example 1, N2-[2-(Cyclopentoxy)-6-Fluoro-Phenyl]-6-(1-Fluoro-1-Methyl-Ethyl)-1,3,5-Triazine-2,4-Diamine]
AMARE
  herbicidal activity against AMARE: very good (a very good herbicidal activity is given at values of at least 85)
APESV
  herbicidal activity against APESV: good (a good herbicidal activity is given at values of at least 70)
